# Assay results from patent publication US20230077362A1 (CORTEVA AGRISCIENCE LLC, priority 2019, published 2023).
# Where two headings read alike, the source gives them in different places.
# What was measured:
# Assay type in all cases: in vivo
# [1] = system: Diamondback Moth (Plutella xylostella) ("DBM"); assay: Bioassay on Diamondback Moth (DBM), Example D, procedure of Example A; conditions: 0.00005 ppm, read-out: DBM % Control (or Mortality) Rating
# Experimental: (§1) Example D: Bioassays on Cabbage Looper (Trichoplusia ni) (“CL”) and Diamondback Moth (Plutella xylostella) (“DBM”)
# (§2) Certain molecules disclosed in this document were tested against CL and DBM (diamondback moth, Plutella xylostella) using procedures described above for BAW and CL (Example A). The results are reported as in the “CL & DBM Rating Table” at concentrations of 0.0005 and 0.00005 ppm, respectively, and are given Table D.
# [2] = system: Cabbage Looper (Trichoplusia ni) ("CL"), second instar larvae; assay: Bioassay on cabbage looper (CL), 128-well diet tray assay; conditions: Trichoplusia ni
# Outline: (§3)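 Each value represents average percent mortality from eight wells. Larvae were kept in clear-covered trays at 25° C. for five to seven days on a 14-hour light, 10-hour dark schedule before scoring.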
# [3] = system: Beet Armyworm (Spodoptera exigua) ("BAW"), second instar larvae; assay: Bioassay on beet armyworm (BAW), 128-well diet tray assay; conditions: Spodoptera exigua
# Outline: as §3
# [4] = system: Cabbage Looper (Trichoplusia ni) ("CL"); assay: Bioassay on Cabbage Looper (CL), Example D, procedure of Example A; conditions: read-out: CL % Control (or Mortality) Rating
# Experimental: as §1, §2
# [5] = system: Green Peach Aphid ("GPA") (Myzus persicae), wingless adult and nymph stages; assay: Bioassay on green peach aphid (GPA), foliar spray on infested cabbage seedlings; conditions: Myzus persicae, foliar, 72 h
# Outline: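 Cabbage seedlings with 2-3 true leaves, infested one day earlier with 20-50 wingless adult and nymph GPA, sprayed to runoff on both leaf sides; solvent check held 20% acetone/methanol (1:1). Live aphids counted after three days at about 25° C; corrected % control = 100*(X−Y)/X versus solvent check.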
# [6] = system: Yellow Fever Mosquito "YFM" (Aedes aegypti), about 1 day-old larvae; assay: Bioassay on yellow fever mosquito (YFM), 96-well plate larval assay; conditions: for YFM (Biological Results, rating): Yellow Fever Mosquito (Aedes aegypti) larvae, scored on mortality after 3 days, C = Not Tested; for YFM rating: Table ABC, species YFM, mortality scored after 3 days, C = not tested, D = no activity noticed
# Experimental: Example C: Bioassays on Yellow Fever Mosquito “YFM” (Aedes aegypti)
# Certain molecules disclosed in this document were tested against YFM using procedures described in the following paragraph. In the reporting of the results, the “YFM Rating Table” was used (See Table Section).
# Master plates containing 400 μg of a molecule dissolved in 100 μL of dimethyl sulfoxide (DMSO) (equivalent to a 4000 ppm solution) are used. A master plate of assembled molecules contains 15 μL per well. To this plate, 135 μL of a 90:10 water:acetone mixture is added to each well. A robot (Biomek® NXP Laboratory Automation Workstation) is programmed to dispense 15 μL aspirations from the master plate into an empty 96-well shallow plate (“daughter” plate). There are 6 reps (“daughter” plates) created per master. The created daughter plates are then immediately infested with YFM larvae.
# The day before plates are to be treated, mosquito eggs are placed in Millipore water containing liver powder to begin hatching (4 g. into 400 mL). After the daughter plates are created using the robot, they are infested with 220 μL of the liver powder/larval mosquito mixture (about 1 day-old larvae). After plates are infested with mosquito larvae, a non-evaporative lid is used to cover the plate to reduce drying. Plates are held at room temperature for 3 days prior to grading. After 3 days, each well is observed and scored based on mortality.
# [7] = read-out: CL (Biological Results, rating)
# [8] = read-out: BAW (Biological Results, rating)
# [9] = read-out: GPA (Biological Results, rating)
SMILES,mortality at 5e-05 ppm [1] [%],"pest or weed control at 50 µg/cm2 [2, 7] [%]","pest or weed control at 50 µg/cm2 [3, 8] [%]",mortality at 0.0005 ppm [4] [%],"pest or weed control at 200 µg/mL [5, 9] [%]","YFM (Biological Results, rating) [6]",pest or weed control at 50 µg/cm2 ([2]; read-out: CL rating) [%],pest or weed control at 50 µg/cm2 ([3]; read-out: BAW rating) [%],pest or weed control at 200 µg/mL ([5]; read-out: GPA rating) [%],YFM rating [6]
Cc1ccc(C)c(N2C(=O)CS/C2=N\C(=O)Nc2ccc(-c3ncn(-c4ccc(OC(F)(F)F)cc4)n3)cc2)c1 [Compound C2],0 to 15,50 to 100,50 to 100,0 to 15,0 to 80,,,,,
Cc1ccc(C(F)(F)F)c(N2C(=O)CS/C2=N\C(=O)NCCc2ccc(-c3ncn(-c4ccc(OC(F)(F)F)cc4)n3)cc2)c1 [Compound H1],16 to 50,50 to 100,50 to 100,16 to 50,0 to 80,A (80-100),,,,
Cc1ccc(C(F)(F)F)c(N2C(=O)CS/C2=N\C(=O)NCC(F)c2ccc(-c3ncn(-c4ccc(OC(F)(F)F)cc4)n3)cc2)c1 (stereo not drawn) [Compound H2],51 to 100,50 to 100,50 to 100,51 to 100,80 to 100,,,,,
Cc1ccc(C(F)(F)F)c(N2C(=O)CS/C2=N\C(=O)N[C@H](C)Cc2ccc(-c3ncn(-c4ccc(OC(F)(F)F)cc4)n3)cc2)c1 [Compound H3],,50 to 100,50 to 100,,80 to 100,A (80-100),,,,
O=C(/N=C1\SCC(=O)N1c1ccccc1C(F)F)NCCc1ccc(-c2ncn(-c3ccc(OC(F)(F)F)cc3)n2)cc1 [Compound H11],,50 to 100,50 to 100,,0 to 80,A (80-100),,,,
Cc1ccc(C(F)(F)F)c(N2C(=O)CS/C2=N\C(=O)Nc2ccc(-c3ncn(-c4ccc(OC(F)(F)F)cc4)n3)cc2)c1 [Compound H20],51 to 100,50 to 100,50 to 100,16 to 50,0 to 80,,,,,
CC(F)(F)c1ccccc1N1C(=O)CS/C1=N\C(=O)NCCc1ccc(-c2ncn(-c3ccc(OC(F)(F)F)cc3)n2)cc1 [Compound H21],,50 to 100,50 to 100,,0 to 80,A (80-100),,,,
"Cc1cc(-c2cn(-c3ccc(C(F)(F)F)cn3)cn2)ccc1NC(=O)/N=C1\SCC(=O)N1c1cc(N(C)C)ccc1C(C)C [Compound J510, (Z)-1-(3-(5-(Dimethylamino)-2-isopropylphenyl)-4-oxothiazolidin-2-ylidene)-3-(2-methyl-4-(1-(5-(trifluoromethyl)pyridin-2-yl)-1H-imidazol-4-yl)phenyl)urea]",,,,,,,50 to 100,50 to 100,0 to 80,A (80-100)
"Cc1cc(-c2ncn(-c3ccc(OC(F)(F)F)cc3)n2)ccc1NC(=O)/N=C1\SCC(=O)N1c1ccccc1COCC(F)(F)F [Compound J653, (Z)-1-(2-Methyl-4-(1-(4-(trifluoromethoxy)phenyl)-1H-1,2,4-triazol-3-yl)phenyl)-3-(4-oxo-3-(2-((2,2,2-trifluoroethoxy)methyl)phenyl)thiazolidin-2-ylidene)urea]",,,,,,,50 to 100,50 to 100,0 to 80,A (80-100)
"Cc1ccc(COCc2cc3c(C(F)(F)F)nn(C)c3s2)c(N2C(=O)CS/C2=N\C(=O)Nc2ccc(-c3ncn(-c4ccc(OC(F)(F)F)cc4)n3)cc2F)c1 [Compound J712, (Z)-1-(2-Fluoro-4-(1-(4-(trifluoromethoxy)phenyl)-1H-1,2,4-triazol-3-yl)phenyl)-3-(3-(5-methyl-2-(((1-methyl-3-(trifluoromethyl)-1H-thieno[2,3-c]pyrazol-5-yl)methoxy)methyl)phenyl)-4-oxothiazolidin-2-ylidene)urea]",,,,,,,50 to 100,50 to 100,,A (80-100)
"Cc1cc(N2C(=O)CS/C2=N\C(=O)Nc2ccc(-c3ncn(-c4ccc(OC(F)(F)F)cc4)n3)cc2F)c(C)cc1F [Compound J714, (Z)-1-(3-(4-Fluoro-2,5-dimethylphenyl)-4-oxothiazolidin-2-ylidene)-3-(2-fluoro-4-(1-(4-(trifluoromethoxy)phenyl)-1H-1,2,4-triazol-3-yl)phenyl)urea]",,,,,,,50 to 100,50 to 100,,A (80-100)
"O=C(/N=C1\SCC(=O)N1c1cc(Cl)ccc1COCc1ccccc1)Nc1ccc(-c2ncn(-c3ccc(OC(F)(F)F)cc3)n2)cc1F [Compound J719, (Z)-1-(3-(2-((Benzyloxy)methyl)-5-chlorophenyl)-4-oxothiazolidin-2-ylidene)-3-(2-fluoro-4-(1-(4-(trifluoromethoxy)phenyl)-1H-1,2,4-triazol-3-yl)phenyl)urea]",,,,,,,50 to 100,50 to 100,0 to 80,A (80-100)
"O=C(/N=C1\SCC(=O)N1c1ccccc1-c1ccccc1)Nc1ccc(-c2ncn(-c3ccc(OC(F)(F)F)cc3)n2)cc1F [Compound J720, (Z)-1-(3-([1,1′-Biphenyl]-2-yl)-4-oxothiazolidin-2-ylidene)-3-(2-fluoro-4-(1-(4-(trifluoromethoxy)phenyl)-1H-1,2,4-triazol-3-yl)phenyl)urea]",,,,,,,50 to 100,50 to 100,,A (80-100)
"O=C(/N=C1\SCC(=O)N1c1ccccc1COCc1ccccc1)Nc1ccc(-c2ncn(-c3ccc(OC(F)(F)F)cc3)n2)cc1F [Compound J742, (Z)-1-(3-(2-((Benzyloxy)methyl)phenyl)-4-oxothiazolidin-2-ylidene)-3-(2-fluoro-4-(1-(4-(trifluoromethoxy)phenyl)-1H-1,2,4-triazol-3-yl)phenyl)urea]",,,,,,,50 to 100,50 to 100,0 to 80,A (80-100)
"Cc1ccc(COCc2ccccc2)c(N2C(=O)CS/C2=N\C(=O)Nc2ccc(-c3ncn(-c4ccc(C(F)(F)F)cc4)n3)cc2F)c1 [Compound J747, (Z)-1-(3-(2-((Benzyloxy)methyl)-5-methylphenyl)-4-oxothiazolidin-2-ylidene)-3-(2-fluoro-4-(1-(4-(trifluoromethyl)phenyl)-1H-1,2,4-triazol-3-yl)phenyl)urea]",,,,,,,50 to 100,50 to 100,0 to 80,A (80-100)
"Cc1ccc(COCC(F)(F)F)c(N2C(=O)CS/C2=N\C(=O)Nc2ccc(-c3ncn(-c4ccnc(OCC(F)(F)F)c4)n3)cc2F)c1 [Compound J750, (Z)-1-(2-Fluoro-4-(1-(2-(2,2,2-trifluoroethoxy)pyridin-4-yl)-1H-1,2,4-triazol-3-yl)phenyl)-3-(3-(5-methyl-2-((2,2,2-trifluoroethoxy)methyl)phenyl)-4-oxothiazolidin-2-ylidene)urea]",,,,,,,50 to 100,50 to 100,,A (80-100)
"Cc1ccc(COCC(F)(F)F)c(N2C(=O)CS/C2=N\C(=O)Nc2ccc(-c3ncn(-c4ccn(CC(F)(F)F)c(=O)c4)n3)cc2F)c1 [Compound J751, (Z)-1-(2-Fluoro-4-(1-(2-oxo-1-(2,2,2-trifluoroethyl)-1,2-dihydropyridin-4-yl)-1H-1,2,4-triazol-3-yl)phenyl)-3-(3-(5-methyl-2-((2,2,2-trifluoroethoxy)methyl)phenyl)-4-oxothiazolidin-2-ylidene)urea]",,,,,,,50 to 100,50 to 100,0 to 80,A (80-100)
